Source: patent publication US11352349B2, “Type II topoisomerase inhibitors and methods of making and using thereof” (Ohio State Innovation Foundation, priority 2017, dated 2022)
In brackets after ≈: the same amount, converted by molar mass. Read-outs that look alike come from different tables or passages of the source.

Experiments:
[1] = molecular target: T1, human topo II (Homo sapiens, UniProt P11388); experiment: Topoisomerase II (alpha) decatenation assay; format: biochemical; details: activity remaining at 100 μM compound; read-out: hTopoll (% activity remaining at 100 μM)
T1 construct: purchased Inspiralis, Norwich, UK
T1 sequence (P11388 whole entry): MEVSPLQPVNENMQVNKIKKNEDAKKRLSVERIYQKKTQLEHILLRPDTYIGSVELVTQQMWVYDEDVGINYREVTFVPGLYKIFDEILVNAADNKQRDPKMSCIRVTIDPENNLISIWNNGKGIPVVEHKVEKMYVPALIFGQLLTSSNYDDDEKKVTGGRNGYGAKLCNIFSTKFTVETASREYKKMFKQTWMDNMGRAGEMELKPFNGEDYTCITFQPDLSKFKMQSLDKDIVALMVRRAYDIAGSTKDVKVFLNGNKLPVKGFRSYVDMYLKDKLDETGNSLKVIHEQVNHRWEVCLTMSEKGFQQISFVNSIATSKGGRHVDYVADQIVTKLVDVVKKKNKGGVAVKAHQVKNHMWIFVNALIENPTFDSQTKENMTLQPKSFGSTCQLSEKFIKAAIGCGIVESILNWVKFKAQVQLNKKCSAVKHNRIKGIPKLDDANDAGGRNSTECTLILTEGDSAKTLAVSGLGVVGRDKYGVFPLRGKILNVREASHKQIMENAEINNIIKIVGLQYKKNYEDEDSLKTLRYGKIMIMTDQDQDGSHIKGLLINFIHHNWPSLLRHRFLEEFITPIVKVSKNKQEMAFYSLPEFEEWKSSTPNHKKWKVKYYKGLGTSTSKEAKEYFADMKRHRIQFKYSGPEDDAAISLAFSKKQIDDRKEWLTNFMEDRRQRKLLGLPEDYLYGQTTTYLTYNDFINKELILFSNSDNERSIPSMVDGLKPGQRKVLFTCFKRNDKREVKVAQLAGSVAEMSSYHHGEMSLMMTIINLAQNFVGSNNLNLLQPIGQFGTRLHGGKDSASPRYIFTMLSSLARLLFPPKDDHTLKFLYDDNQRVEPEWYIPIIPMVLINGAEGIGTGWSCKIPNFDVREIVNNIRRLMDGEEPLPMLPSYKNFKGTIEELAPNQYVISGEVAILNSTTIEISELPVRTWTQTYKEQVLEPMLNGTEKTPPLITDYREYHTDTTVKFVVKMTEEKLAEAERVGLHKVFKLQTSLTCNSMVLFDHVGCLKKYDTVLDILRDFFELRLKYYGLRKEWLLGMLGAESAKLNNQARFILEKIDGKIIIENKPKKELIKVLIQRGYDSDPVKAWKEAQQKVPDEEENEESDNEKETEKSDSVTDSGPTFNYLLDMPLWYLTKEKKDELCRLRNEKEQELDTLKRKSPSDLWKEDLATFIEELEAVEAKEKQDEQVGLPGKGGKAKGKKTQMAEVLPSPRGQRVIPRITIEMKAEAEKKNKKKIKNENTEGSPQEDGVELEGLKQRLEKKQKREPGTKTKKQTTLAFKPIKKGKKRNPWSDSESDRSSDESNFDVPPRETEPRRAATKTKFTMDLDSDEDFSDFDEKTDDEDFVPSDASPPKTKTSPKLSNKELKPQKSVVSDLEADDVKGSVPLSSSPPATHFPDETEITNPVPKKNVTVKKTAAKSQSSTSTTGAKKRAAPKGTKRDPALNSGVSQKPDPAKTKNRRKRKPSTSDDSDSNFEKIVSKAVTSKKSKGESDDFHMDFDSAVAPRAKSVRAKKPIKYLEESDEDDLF
Protocol: (§1) A subset of analogs was used to assess the degree of inhibition of DNA gyrase or TopoIV (Inspiralis, Norwich, UK), both to establish the mechanism of action and to evaluate the relative balance of inhibitory activities (Table 1). A subset of compound was also assayed to determine the degree of inhibition of human topoisomerase II (Inspiralis, Norwich, UK)).
(§2) In all experiments, the activity of the enzymes was determined prior to the testing of the compounds and 1 unit (U) was defined as the amount of enzyme required to just fully supercoil, relax or decatenate the substrate (see explanation of gels). This amount of enzyme was initially used in determination of control inhibitor activity. These experiments were performed in duplicate.
(§3) For all assays the final DMSO concentration was 1%. 10 mM stocks of the compounds were serially diluted into 10% DMSO at 1 mM, 0.5 mM, 0.25 mM, 0.1 mM, 0.05 mM, 0.01 mM, 0.005 mM, 0.001 mM, 0.0005 mM, 0.0001 mM and 0.00005 mM. 3.0 μl of each dilution was added to a 30 μl assay.
(§4) Bands were visualised by ethidium staining for 20 minutes and destaining for 20 minutes. Gels were scanned using documentation equipment (GeneGenius, Syngene, Cambridge, UK) and % inhibition levels (where appropriate) were obtained with gel scanning software. (GeneTools, Syngene, Cambridge, UK)
Topoisomerase II (Alpha) Decatenation Assay
Each reaction was stopped by the addition of 30 μl chloroform/iso-amyl alcohol (26:1) and 30 μl Stop Dye, before being loaded on a 1.0% TAE gel run at 90V for 2 hours.

[2] = test system: USA 300 strain of MRSA; experiment: MIC by broth microdilution, USA 300 strain of MRSA; format: cell-based, Staphylococcus aureus; details: multiple values when multiple MIC assays were conducted; for MIC: Staphylococcus aureus, read-out: MIC USA300
Protocol: Minimum inhibitory concentrations were determined using the quality control strain S. aureus ATCC 29213 (Table 1) by the broth microdilution method according to guidelines of the Clinical and Laboratory Standards Institute (CLSI) (Cockerill, F. R.; et al., 2012, Methods for dilution antimicrobial susceptibility tests for bacteria that grow aerobically; approved standard-ninth edition. MA07-A9. Clinical and Laboratory Standard Institute, Wayne, Pa.). […] MICs for selected compounds were also determined using a USA 300 strain of MRSA (Hidron, et al., Lancet Infect. Dis. 2009, 9:384-392). Vancomycin was used as an additional control.

[3] = molecular target: T2, Staphylococcus aureus gyrase (Staphylococcus aureus, UniProt P0A0K8+P20831); experiment: Staphylococcus aureus gyrase supercoiling assay; format: biochemical
T2 construct: purchased Inspiralis, Norwich, UK
T2 sequence (P20831 whole entry): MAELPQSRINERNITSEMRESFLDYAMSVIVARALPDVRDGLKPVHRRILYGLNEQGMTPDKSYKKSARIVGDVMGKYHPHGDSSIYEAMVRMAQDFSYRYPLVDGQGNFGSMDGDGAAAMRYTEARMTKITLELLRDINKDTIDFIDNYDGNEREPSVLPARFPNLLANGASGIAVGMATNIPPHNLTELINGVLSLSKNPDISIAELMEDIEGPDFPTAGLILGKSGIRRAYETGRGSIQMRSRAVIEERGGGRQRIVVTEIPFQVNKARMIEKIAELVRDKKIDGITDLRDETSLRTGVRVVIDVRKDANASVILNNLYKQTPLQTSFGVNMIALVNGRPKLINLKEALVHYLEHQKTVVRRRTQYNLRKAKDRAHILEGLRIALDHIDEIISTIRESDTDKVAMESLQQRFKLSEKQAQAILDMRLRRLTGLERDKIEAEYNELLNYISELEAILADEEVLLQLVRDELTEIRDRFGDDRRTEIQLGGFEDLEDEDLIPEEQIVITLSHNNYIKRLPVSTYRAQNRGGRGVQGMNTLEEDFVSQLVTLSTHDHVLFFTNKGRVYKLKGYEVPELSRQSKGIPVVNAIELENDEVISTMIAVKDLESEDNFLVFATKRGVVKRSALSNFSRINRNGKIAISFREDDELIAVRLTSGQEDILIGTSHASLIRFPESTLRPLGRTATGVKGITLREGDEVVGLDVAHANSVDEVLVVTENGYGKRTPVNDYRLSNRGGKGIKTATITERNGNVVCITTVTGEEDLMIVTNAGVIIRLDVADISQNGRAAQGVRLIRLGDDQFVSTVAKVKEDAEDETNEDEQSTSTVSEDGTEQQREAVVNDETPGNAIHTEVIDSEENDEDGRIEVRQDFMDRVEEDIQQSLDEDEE
T2 sequence (P0A0K8 whole entry): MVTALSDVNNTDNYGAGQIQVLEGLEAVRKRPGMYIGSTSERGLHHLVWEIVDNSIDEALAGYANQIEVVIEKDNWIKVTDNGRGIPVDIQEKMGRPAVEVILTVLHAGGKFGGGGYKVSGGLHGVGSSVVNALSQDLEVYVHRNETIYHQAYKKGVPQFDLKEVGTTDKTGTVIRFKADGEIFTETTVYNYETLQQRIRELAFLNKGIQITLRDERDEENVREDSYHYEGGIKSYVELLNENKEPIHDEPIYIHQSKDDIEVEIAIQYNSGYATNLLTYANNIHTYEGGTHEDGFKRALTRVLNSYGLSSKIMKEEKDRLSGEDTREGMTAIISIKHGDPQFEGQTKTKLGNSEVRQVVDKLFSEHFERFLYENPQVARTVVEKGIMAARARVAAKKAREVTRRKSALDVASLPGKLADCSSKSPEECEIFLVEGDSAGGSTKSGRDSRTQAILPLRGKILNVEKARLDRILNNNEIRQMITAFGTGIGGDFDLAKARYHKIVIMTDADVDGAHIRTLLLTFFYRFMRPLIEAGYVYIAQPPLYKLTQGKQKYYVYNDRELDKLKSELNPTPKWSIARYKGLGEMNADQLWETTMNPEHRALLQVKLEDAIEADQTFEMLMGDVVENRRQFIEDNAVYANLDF
Protocol: as §1, §2, §3, §4
Staphylococcus aureus gyrase supercoiling
1 U of DNA gyrase was incubated with 0.5 μg of relaxed pBR322 DNA in a 30 μl reaction at 37° C. for 30 minutes under the following conditions: 40 mM HEPES. KOH (pH 7.6), 10 mM magnesium acetate, 10 mM DTT, 2 mM ATP, 500 mM potassium glutamate and 0.05 mg/ml BSA.
Each reaction was stopped by the addition of 30 μl chloroform/iso-amyl alcohol (26:1) and 30 μl Stop Dye (40% sucrose (w/v), 100 mM Tris.HCl (pH 7.5), 10 mM EDTA, 0.5 μg/ml bromophenol blue), before being loaded on a 1.0% TAE gel run at 70V for 2 hours.

[4] = molecular target: T3, Staphylococcus aureus Topo IV (Staphylococcus aureus, UniProt P0C1S7+P0C1U9); experiment: Staphylococcus aureus Topo IV decatenation assay; format: biochemical
T3 construct: purchased Inspiralis, Norwich, UK
T3 sequence (P0C1S7 whole entry): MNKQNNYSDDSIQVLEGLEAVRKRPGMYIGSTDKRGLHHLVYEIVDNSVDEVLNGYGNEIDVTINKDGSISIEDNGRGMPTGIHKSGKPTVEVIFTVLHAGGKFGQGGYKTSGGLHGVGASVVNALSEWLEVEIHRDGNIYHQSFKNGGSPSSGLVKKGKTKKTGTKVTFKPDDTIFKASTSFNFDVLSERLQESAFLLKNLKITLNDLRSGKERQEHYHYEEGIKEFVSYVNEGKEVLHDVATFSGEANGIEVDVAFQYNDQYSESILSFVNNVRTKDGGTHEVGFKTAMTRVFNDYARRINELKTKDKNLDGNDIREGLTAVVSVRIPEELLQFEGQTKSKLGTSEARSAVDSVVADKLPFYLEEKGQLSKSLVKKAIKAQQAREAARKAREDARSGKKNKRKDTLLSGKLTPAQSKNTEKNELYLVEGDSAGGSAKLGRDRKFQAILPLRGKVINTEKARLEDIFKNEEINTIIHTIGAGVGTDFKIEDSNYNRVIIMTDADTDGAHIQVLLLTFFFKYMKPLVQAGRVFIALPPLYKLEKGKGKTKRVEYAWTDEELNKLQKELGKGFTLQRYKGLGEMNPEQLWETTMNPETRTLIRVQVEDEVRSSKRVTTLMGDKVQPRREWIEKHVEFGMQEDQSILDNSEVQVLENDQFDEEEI
T3 sequence (P0C1U9 whole entry): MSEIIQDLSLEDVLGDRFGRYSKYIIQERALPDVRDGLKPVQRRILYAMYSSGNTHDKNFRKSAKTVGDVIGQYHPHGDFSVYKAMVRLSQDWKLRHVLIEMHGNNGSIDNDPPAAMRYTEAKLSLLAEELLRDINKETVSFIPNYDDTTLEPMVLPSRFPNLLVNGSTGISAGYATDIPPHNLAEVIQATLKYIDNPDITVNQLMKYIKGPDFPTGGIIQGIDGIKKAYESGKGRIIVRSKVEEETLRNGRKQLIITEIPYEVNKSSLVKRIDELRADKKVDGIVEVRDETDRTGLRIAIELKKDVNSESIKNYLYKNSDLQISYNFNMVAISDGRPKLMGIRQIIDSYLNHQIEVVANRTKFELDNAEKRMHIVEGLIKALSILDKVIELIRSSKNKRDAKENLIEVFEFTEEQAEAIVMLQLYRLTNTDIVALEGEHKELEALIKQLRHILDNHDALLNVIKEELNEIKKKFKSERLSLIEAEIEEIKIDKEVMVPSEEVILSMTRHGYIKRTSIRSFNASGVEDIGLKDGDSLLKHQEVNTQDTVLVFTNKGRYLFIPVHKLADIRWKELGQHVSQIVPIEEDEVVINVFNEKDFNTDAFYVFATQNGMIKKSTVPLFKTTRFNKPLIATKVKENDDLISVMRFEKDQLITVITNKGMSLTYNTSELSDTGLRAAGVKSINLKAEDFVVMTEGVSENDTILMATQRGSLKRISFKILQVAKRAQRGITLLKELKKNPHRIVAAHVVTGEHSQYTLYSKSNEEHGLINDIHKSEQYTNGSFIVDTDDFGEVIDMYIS
Protocol: as §1, §2, §3, §4
Staphylococcus aureus Topo IV Decatenation Assay
1 U of Topo IV was incubated with 200 ng kDNA DNA in a 30 μl reaction at 37° C. for 30 minutes under the following conditions: 50 mM Tris.HCl (7.5), 5 mM MgCl2, 5 mM DTT, 1.5 mM ATP, 350 mM potassium glutamate and 0.05 mg/ml BSA.
Each reaction was stopped by the addition of 30 μl chloroform/iso-amyl alcohol (26:1) and 30 μl Stop Dye, before being loaded on a 1.0% TAE gel run at 70V for 2 hours.

[5] = test system: S. aureus ATCC 29213; experiment: MIC by broth microdilution (CLSI), quality control strain S. aureus ATCC 29213; format: cell-based, Staphylococcus aureus; details: multiple values when multiple MIC assays were conducted; for MIC: Staphylococcus aureus, ATCC29213, S. aureus ATCC 29213
Protocol: Minimum inhibitory concentrations were determined using the quality control strain S. aureus ATCC 29213 (Table 1) by the broth microdilution method according to guidelines of the Clinical and Laboratory Standards Institute (CLSI) (Cockerill, F. R.; et al., 2012, Methods for dilution antimicrobial susceptibility tests for bacteria that grow aerobically; approved standard-ninth edition. MA07-A9. Clinical and Laboratory Standard Institute, Wayne, Pa.). […] Published quality control ranges for gepotidacin and ciprofloxacin were used to validate each assay. MICs for selected compounds were also determined using a USA 300 strain of MRSA (Hidron, et al., Lancet Infect. Dis. 2009, 9:384-392). Vancomycin was used as an additional control.

[6] = S. aureus DNA gyrase supercoiling, read-out: Gyrase IC50
[7] = S. aureus Topo IV decatenation, read-out: TopolV Decat IC50

Compound | remaining activity at 100 µM [1] [%] | MIC [2] [µg/mL] | IC50 [3] [nM] | IC50 [4] [nM] | MIC [5] [µg/mL] | MIC USA300 [2] [µg/mL] | IC50 [3, 6] [nM] | IC50 [4, 7] [nM] | MIC 29213 ([5]; S. aureus ATCC 29213) [µg/mL]
COc1ccc2ncc(F)c(CC[C@H]3OC[C@H](NCc4ccc5c(c4)OCCO5)CO3)c2n1 [AB-0015, N-((2,3-dihydrobenzo[b][1,4]dioxin-6-yl)methyl)-2-(2-(3-fluoro-6-methoxy-1,5-naphthyridin-4-yl)ethyl)-trans-1,3-dioxan-5-amine] | 55 | 0.125 (≈ 0.274 µM) | 30 | 980 | ≤ 0.25 |  |  |  | 
COc1ccc2ncc(F)c(C(O)C[C@H]3OC[C@H](NCc4ccc5c(c4)OCCO5)CO3)c2c1 (stereo partly drawn) [AB-0016, 2-(5-(((2,3-dihydrobenzo[b][1,4]dioxin-6-yl)methyl)amino)-trans-1,3-dioxan-2-yl)-1-(3-fluoro-6-methoxyquinolin-4-yl)ethan-1-ol] | 77.4 | 0.25 (≈ 0.531 µM) | 90 | 7980 | 0.125 (≈ 0.266 µM) | 0.25 (≈ 0.531 µM) |  |  | 
COc1ccc2ncc(F)c(CC[C@H]3OC[C@H](NCc4cc5c(cn4)OCCC5)CO3)c2n1 [AB-0018] | 79.8 | 0.25 (≈ 0.55 µM) |  |  | ≤ 0.25 |  | 160 | 5330 | 
COc1ccc2ncc(F)c(C(O)C[C@H]3OC[C@H](NCc4cc5c(cn4)OCCC5)CO3)c2c1 (stereo partly drawn) [AB-0020, 2-(5-(((3,4-dihydro-2H-pyrano[2,3-c]pyridin-6-yl)methyl)amino)-trans-1,3-dioxan-2-yl)-1-(3-fluoro-6-methoxyquinolin-4-yl)ethan-1-ol] | 92.9 | 1 (≈ 2.13 µM) |  |  | 0.5 (≈ 1.06 µM) |  | 130 | 15200 | 
COc1ccc2nccc(CC[C@H]3OC[C@H](NCc4ccc5c(n4)NC(=O)CS5)CO3)c2c1 [AB-0021, 6-(((2-(2-(6-methoxyquinolin-4-yl)ethyl)-trans-1,3-dioxan-5-yl)amino)methyl)-2H-pyrido[3,2-b][1,4]thiazin-3(4H)-one] | 91.1 | 0.5 (≈ 1.07 µM) |  |  | 0.5 (≈ 1.07 µM) |  | 590 | > 100000 | 
COc1ccc2nccc(CC[C@H]3OC[C@H](NCc4ccc(Cl)c(F)c4)CO3)c2c1 [AB-0030, N-(4-chloro-3-fluorobenzyl)-2-(2-(6-methoxyquinolin-4-yl)ethyl)-trans-1,3-dioxan-5-amine] | 97.8 | 1 (≈ 2.32 µM) |  |  | 2 (≈ 4.64 µM) |  | 950 | > 100000 | 
COc1ccc2nccc(CC[C@H]3OC[C@H](NC/C=C/c4ccccc4)CO3)c2c1 [AB-0051] | 93.7 | 1 (≈ 2.47 µM) |  |  | 1 (≈ 2.47 µM) |  | 420 | 50000 to 100000 | 
COc1ccc2nccc(CC[C@H]3OC[C@H](NCc4ccc(Cl)cc4)CO3)c2c1 [AB-0052, N-(4-chlorobenzyl)-2-(2-(6-methoxyquinolin-4-yl)ethyl)-trans-1,3-dioxan-5-amine] | 97.8 | 4 (≈ 9.69 µM) |  |  | 1 (≈ 2.42 µM) |  | 1160 | > 100000 | 
COc1ccc2nccc(CC[C@H]3OC[C@H](NCc4ccc5c(n4)NC(=O)CO5)CO3)c2c1 [AB-0055, 6-(((2-(2-(6-methoxyquinolin-4-yl)ethyl)-trans-1,3-dioxan-5-yl)amino)methyl)-2H-pyrido[3,2-b][1,4]oxazin-3(4H)-one] | 99.1 | 1 (≈ 2.22 µM) |  |  | 0.5 (≈ 1.11 µM) |  | 780 | > 100000 | 
COc1ccc2nccc(CC[C@H]3OC[C@H](NCc4ccc5c(c4)NC(=O)CO5)CO3)c2c1 [AB-0057, 6-(((2-(2-(6-methoxyquinolin-4-yl)ethyl)-trans-1,3-dioxan-5-yl)amino)methyl)-2H-benzo[b][1,4]oxazin-3(4H)-one] | 93 | 1 (≈ 2.22 µM) |  |  | 1 (≈ 2.22 µM) |  | 740 | > 100000 | 2 (≈ 4.45 µM)
COc1ccc2ncc(F)c(CC[C@H]3OC[C@H](NCc4ccc5c(n4)NC(=O)CS5)CO3)c2n1 [AB-0059, 6-(((2-(2-(3-fluoro-6-methoxy-1,5-naphthyridin-4-yl)ethyl)-trans-1,3-dioxan-5-yl)amino)methyl)-2H-pyrido[3,2-b][1,4]thiazin-3(4H)-one] | 95.7 | 0.25 (≈ 0.515 µM) |  |  | ≤ 0.5 |  | 170 | > 100000 | 
COc1ccc2ncc(F)c(CC[C@H]3OC[C@H](NCc4ccc5c(n4)NC(=O)CO5)CO3)c2n1 [AB-0060] | 83.1 | 0.25 (≈ 0.533 µM) | 130 | 5000 to 10000 | 0.125 (≈ 0.266 µM) |  |  |  | 
COc1ccc2ncc(F)c(CC[C@H]3OC[C@H](NCc4cc5c(cn4)OCCO5)CO3)c2n1 [AB-0061, N-((2,3-dihydro-[1,4]dioxino[2,3-c]pyridin-7-yl)methyl)-2-(2-(3-fluoro-6-methoxy-1,5-naphthyridin-4-yl)ethyl)-trans-1,3-dioxan-5-amine] | 69.6 | 0.25 (≈ 0.548 µM) |  |  | 0.125 (≈ 0.274 µM) |  | 420 | 61000 | 
COc1ccc2ncc(F)c(CC[C@H]3OC[C@H](NCc4ccc(F)c(F)c4)CO3)c2n1 [AB-0062, N-(3,4-difluorobenzyl)-2-(2-(3-fluoro-6-methoxy-1,5-naphthyridin-4-yl)ethyl)-trans-1,3-dioxan-5-amine] | 90.7 | 4 (≈ 9.23 µM) |  |  | 2 (≈ 4.61 µM) |  | 4430 | > 100000 | 
